Assay results: PubChem BioAssay (NCI)
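Step 1: Grow cells in 96-well plates. Step 2: Expose to compound for 48 hours at 5 concentrations. Step 3: Interpolate endpoints linearly; if unreached, use highest concentration. GI50 = concentration required for 50% inhibition of growth. The concentration for full growth arrest is given as TGI.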

Columns and labels:
Assay in all cases: NCI anticancer screen, dose series, 48 h
[1] = test system: 786-0 renal
[2] = test system: A498 renal
[3] = test system: ACHN renal
[4] = test system: BT-549 breast
[5] = test system: CAKI-1 renal
[6] = test system: COLO 205 colon
[7] = test system: DU-145 prostate
[8] = test system: EKVX NSCLC
[9] = test system: HCC-2998 colon
[10] = test system: HCT-116 colon
[11] = test system: HCT-15 colon
[12] = test system: HOP-62 NSCLC
[13] = test system: HOP-92 NSCLC
[14] = test system: HS 578T breast
[15] = test system: HT29 colon
[16] = test system: IGROV1 ovarian
[17] = test system: K-562 leukemia
[18] = test system: M14 melanoma
[19] = test system: MALME-3M melanoma
[20] = test system: MCF7 breast
[21] = test system: MDA-MB-231 breast
[22] = test system: MDA-MB-435
[23] = test system: MOLT-4 leukemia
[24] = test system: NCI-H226 lung
[25] = test system: NCI-H23 lung
[26] = test system: NCI-H460 lung
[27] = test system: NCI-H522 lung
[28] = test system: NCI/ADR-RES ovarian
[29] = test system: OVCAR-4 ovarian
[30] = test system: OVCAR-5 ovarian
[31] = test system: OVCAR-8 ovarian
[32] = test system: PC-3 prostate
[33] = test system: RPMI-8226 leukemia
[34] = test system: RXF 393 renal
[35] = test system: SF-268 CNS
[36] = test system: SF-295 CNS
[37] = test system: SF-539 CNS
[38] = test system: SK-MEL-2 melanoma
[39] = test system: SK-MEL-28 melanoma
[40] = test system: SK-MEL-5 melanoma
[41] = test system: SK-OV-3 ovarian
[42] = test system: SN12C renal
[43] = test system: SW-620 colon
[44] = test system: T-47D breast
[45] = test system: TK-10 renal
[46] = test system: U251 CNS
[47] = test system: UACC-257 melanoma
[48] = test system: UACC-62 melanoma
[49] = test system: UO-31 renal
[50] = test system: A549 NSCLC
[51] = test system: HL-60(TB) leukemia
[52] = test system: KM12 colon
[53] = test system: OVCAR-3 ovarian
[54] = test system: SNB-19 CNS
[55] = test system: SNB-75 CNS
[56] = test system: SR leukemia

Cn1c2ccccc2c(=Nc2ccccc2)c2c3ccccc3[nH]c21
GI50 [1]: 1.33 µM | TGI [1]: 2.63 µM | GI50 [2]: 1.34 µM | TGI [2]: 3.08 µM | GI50 [3]: 0.755 µM | TGI [3]: 1.99 µM | GI50 [4]: 3.15 µM | TGI [4]: 7.13 µM | GI50 [5]: 0.78 µM | TGI [5]: 2.05 µM | GI50 [6]: 4.53 µM | TGI [6]: 18.8 µM | GI50 [7]: 1.74 µM | TGI [7]: 4.36 µM | GI50 [8]: 3.21 µM | TGI [8]: 8.63 µM | GI50 [9]: 3.23 µM | TGI [9]: 46.4 µM | GI50 [10]: 1.26 µM | TGI [10]: 2.52 µM | GI50 [11]: 1.51 µM | TGI [11]: 3.49 µM | GI50 [12]: 1.14 µM | TGI [12]: 2.42 µM | GI50 [13]: 0.942 µM | TGI [13]: 2.39 µM | GI50 [14]: 1.46 µM | TGI [14]: 4.58 µM | GI50 [15]: 2.36 µM | TGI [15]: > 100 µM | GI50 [16]: 1.64 µM | TGI [16]: > 100 µM | GI50 [17]: 1.84 µM | TGI [17]: 15.7 µM | GI50 [18]: 1.65 µM | TGI [18]: 3.02 µM | GI50 [19]: 0.345 µM | TGI [19]: 1.8 µM | GI50 [20]: 0.284 µM | TGI [20]: 1.86 µM | GI50 [21]: 1.62 µM | TGI [21]: 3.11 µM | GI50 [22]: 1.84 µM | TGI [22]: 3.32 µM | GI50 [23]: 0.32 µM | TGI [23]: 11.7 µM | GI50 [24]: 0.615 µM | TGI [24]: 2 µM | GI50 [25]: 2.73 µM | TGI [25]: 20.4 µM | GI50 [26]: 0.41 µM | TGI [26]: 1.49 µM | GI50 [27]: 2.29 µM | TGI [27]: > 100 µM | GI50 [28]: 6.75 µM | TGI [28]: 61.2 µM | GI50 [29]: 5.41 µM | TGI [29]: 22 µM | GI50 [30]: 7.6 µM | TGI [30]: 59.9 µM | GI50 [31]: 1.85 µM | TGI [31]: 10.2 µM | GI50 [32]: 1.69 µM | TGI [32]: 6.2 µM | GI50 [33]: 1.08 µM | TGI [33]: 2.56 µM | GI50 [34]: 1.84 µM | TGI [34]: 4.05 µM | GI50 [35]: 0.436 µM | TGI [35]: 2.37 µM | GI50 [36]: 1.03 µM | TGI [36]: 2.22 µM | GI50 [37]: 1.17 µM | TGI [37]: 2.46 µM | GI50 [38]: 3.78 µM | TGI [38]: > 100 µM | GI50 [39]: 2.3 µM | TGI [39]: 6.17 µM | GI50 [40]: 0.787 µM | TGI [40]: 2.06 µM | GI50 [41]: 2.16 µM | TGI [41]: 5.08 µM | GI50 [42]: 1.24 µM | TGI [42]: 3.11 µM | GI50 [43]: 1.09 µM | TGI [43]: 2.9 µM | GI50 [44]: 3.91 µM | TGI [44]: > 100 µM | GI50 [45]: 1.03 µM | TGI [45]: 2.2 µM | GI50 [46]: 1.15 µM | TGI [46]: 2.45 µM | GI50 [47]: 3.02 µM | TGI [47]: 16 µM | GI50 [48]: 0.696 µM | TGI [48]: 2.01 µM | GI50 [49]: 1.93 µM | TGI [49]: > 100 µM

COc1ccc(/C=C/c2cc(O)cc(OC)c2)cc1
TGI [1]: > 100 µM | TGI [2]: > 100 µM | TGI [50]: > 100 µM | TGI [3]: > 100 µM | TGI [4]: > 100 µM | TGI [5]: > 100 µM | TGI [6]: > 100 µM | TGI [7]: > 100 µM | TGI [8]: > 100 µM | TGI [10]: > 100 µM | TGI [11]: 14.4 µM | TGI [51]: > 100 µM | TGI [12]: > 100 µM | TGI [13]: > 100 µM | TGI [14]: > 100 µM | TGI [15]: > 100 µM | TGI [16]: > 100 µM | TGI [17]: > 100 µM | TGI [52]: > 100 µM | TGI [18]: > 100 µM | TGI [19]: > 100 µM | TGI [20]: > 100 µM | TGI [21]: > 100 µM | TGI [22]: > 100 µM | TGI [23]: > 100 µM | TGI [24]: > 100 µM | TGI [25]: > 100 µM | TGI [26]: > 100 µM | TGI [27]: > 100 µM | TGI [28]: > 100 µM | TGI [53]: > 100 µM | TGI [29]: > 100 µM | TGI [30]: > 100 µM | TGI [31]: > 100 µM | TGI [32]: > 100 µM | TGI [33]: 78.7 µM | TGI [34]: > 100 µM | TGI [35]: > 100 µM | TGI [36]: > 100 µM | TGI [37]: > 100 µM | TGI [38]: > 100 µM | TGI [39]: > 100 µM | TGI [40]: > 100 µM | TGI [41]: > 100 µM | TGI [42]: > 100 µM | TGI [54]: > 100 µM | TGI [55]: > 100 µM | TGI [56]: > 100 µM | TGI [43]: > 100 µM | TGI [44]: > 100 µM | TGI [45]: > 100 µM | TGI [46]: > 100 µM | TGI [47]: > 100 µM | TGI [48]: > 100 µM | TGI [49]: > 100 µM
